Like-named read-outs stand apart in the source and are kept apart here.
Target: T1, human MRGPRX2 (Homo sapiens, UniProt Q96LB1)
T1 construct: expressed in transfected cells
T1 sequence (Q96LB1 1-330): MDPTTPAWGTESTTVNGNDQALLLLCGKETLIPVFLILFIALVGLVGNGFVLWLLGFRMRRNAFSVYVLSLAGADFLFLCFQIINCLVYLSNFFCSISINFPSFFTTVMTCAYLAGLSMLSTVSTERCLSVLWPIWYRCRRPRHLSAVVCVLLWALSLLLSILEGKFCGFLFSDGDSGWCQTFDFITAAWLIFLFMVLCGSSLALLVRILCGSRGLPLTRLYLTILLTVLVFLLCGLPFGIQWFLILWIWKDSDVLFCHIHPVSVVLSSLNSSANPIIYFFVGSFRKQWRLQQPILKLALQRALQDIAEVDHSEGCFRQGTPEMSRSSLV
Experiment: MRGPRX2 antagonist activity, IP-One HTRF assay in CHO cells expressing human MRGPRX2 versus Cortistatin-14
Format: cell-based
Procedure: CHO cells stably transfected to express human MRGPRX2 were maintained in an incubator at 37° C. with 5% CO2 and grown in F12 (HAM) media with 10% fetal bovine serum (FBS), 1% Glutamax, 1% penicillin/streptomycin, 800 μg/mL Geneticin (G418), and 300 μg/mL Hygromycin B. Cells were plated in a 384-well assay plate at 20,000 cells per well in 12 μL of Opti-MEM and kept in an incubator overnight. On the day of the assay, compounds solubilized at 10 mM in DMSO were added as a 10-point curve (30 uM final top concentration with 1:3 serial dilutions) using a Tecan D300E digital dispenser. Agonists were diluted in assay buffer (final concentrations of 5.7 mM Tris-HCl, 43 mM NaCl, 50 mM LiCI, pH=8) and 2 μL of the agonist Cortistatin-14 (CPC Scientific, catalog CORT-002) are added to each well. Final concentrations of agonists were […] Cortistatin-14. Final concentrations of DMSO were kept consistent across the plate. Plates were incubated in the dark for 1 hr at 37° C. and then for 1 hr at room temperature. IP-1 standards and HTRF detection reagents were added according to the IP-One—Gq Kit purchased from Cisbio (part number 621PAPEJ) and incubated in the dark for 1 hr at room temperature. The plate was read on a Molecular Devices SpectraMax iD5 plate reader. The HTRF ratio was calculated from the raw data and graphed using GraphPad Prism to calculate an IC50 value for each compound.
The activity ranges are denoted as follows: “+++++” denotes antagonist activity <100 nM; “++++” denotes antagonist activity between 100 and 500 nM; “+++” denotes activity between 501 and 1000 nM; “++” denotes activity between 1001 and 2500 nM; and “+” denotes activity >2500 nM.

[1] = CHO cells stably expressing human MRGPRX2, versus 0.3 uM Cortistatin-14 agonist, IP-1 HTRF readout, read-out: MRGPR2 Antagonist Activity

N=C(N)Nc1ccc(C(=O)N[C@H]2CC[C@@H](Nc3cc(C(F)(F)F)nc(C(F)(F)F)c3)CC2)cc1 (single isomer, unassigned) [4-55]
IC50 [1]: < 100 nM

COc1ccc(C(=O)N[C@H]2CCC[C@@H](Nc3cc(C(F)(F)F)cc(C(F)(F)F)c3)C2)cc1 (stereo in doubt) [example 5, N-((1S,3R)-3-((3,5-bis(trifluoromethyl)phenyl)amino)cyclohexyl)-4-methoxybenzamide]
IC50 [1]: 1000 to 2500 nM

O=C(N[C@H]1CC[C@@H](Nc2cc(C(F)(F)F)nc(C(F)(F)F)c2)CC1)c1ccc(F)cc1 [1-1]
IC50 [1]: 100 to 500 nM

CN(C)c1ccc(C(=O)N[C@H]2CC[C@@H](Nc3cc(C(F)(F)F)nc(C(F)(F)F)c3)CC2)cc1 [1-2]
IC50 [1]: 100 to 500 nM

COc1ccc(C(=O)N[C@H]2CC[C@@H](Nc3cc(C(F)(F)F)nc(C(F)(F)F)c3)CC2)cc1 [1-3]
IC50 [1]: 100 to 500 nM

N#Cc1cccc(C(=O)N[C@H]2CC[C@@H](Nc3cc(C(F)(F)F)nc(C(F)(F)F)c3)CC2)c1 [1-4]
IC50 [1]: 1000 to 2500 nM

Cc1ccoc1C(=O)N[C@H]1CC[C@@H](Nc2cc(C(F)(F)F)nc(C(F)(F)F)c2)CC1 [1-5]
IC50 [1]: 1000 to 2500 nM

COc1ccc(C(=O)N[C@@H]2CCC[C@H](Nc3nc(C(F)(F)F)nc4c3CCC4)C2)cc1 [1-6]
IC50 [1]: 1000 to 2500 nM

COc1cc(N[C@H]2CC[C@@H](NC(=O)c3ccc(F)cc3)CC2)nc(C(F)(F)F)n1 [1-7]
IC50 [1]: 1000 to 2500 nM

CN(C)c1nc(N[C@H]2CC[C@@H](NC(=O)c3ccc(F)cc3)CC2)cc(C(F)(F)F)n1 [1-8]
IC50 [1]: 501 to 1000 nM

O=C(N[C@H]1CC[C@@H](Nc2cc(C(F)(F)F)nc(N3CCCC3)n2)CC1)c1ccc(F)cc1 [1-9]
IC50 [1]: 1000 to 2500 nM

CN(C)c1nc(N[C@H]2CC[C@@H](NC(=O)c3ccccc3)CC2)cc(C(F)(F)F)n1 [1-10]
IC50 [1]: 501 to 1000 nM

O=C(N[C@H]1CC[C@@H](Nc2nc(C(F)(F)F)nc3c2CCCC3)CC1)c1ccc(F)cc1 [1-11]
IC50 [1]: 1000 to 2500 nM

N#Cc1ccc(N[C@H]2CC[C@@H](NC(=O)c3cccc4[nH]ccc34)CC2)cc1C(F)(F)F [1-12]
IC50 [1]: < 100 nM

CN(C)c1ccc(C(=O)N[C@H]2CC[C@@H](Nc3ccc(C#N)c(C(F)(F)F)c3)CC2)c(F)c1 [1-13]
IC50 [1]: 100 to 500 nM

CC(C)S(=O)(=O)Nc1ccc(C(=O)N[C@H]2CC[C@@H](Nc3ccc(C#N)c(C(F)(F)F)c3)CC2)cc1 [1-14]
IC50 [1]: < 100 nM

N#Cc1ccc(N[C@H]2CC[C@@H](NC(=O)c3csc(N)n3)CC2)cc1C(F)(F)F [1-15]
IC50 [1]: 100 to 500 nM

CN(C)c1cccc(C(=O)N[C@H]2CC[C@@H](Nc3ccc(C#N)c(C(F)(F)F)c3)CC2)c1 [1-16]
IC50 [1]: 100 to 500 nM

Cn1nccc1C(=O)N[C@H]1CC[C@@H](Nc2ccc(C#N)c(C(F)(F)F)c2)CC1 [1-17]
IC50: 100 to 500 nM

CN(c1ccc(C(=O)N[C@H]2CC[C@@H](Nc3ccc(C#N)c(C(F)(F)F)c3)CC2)cc1)S(C)(=O)=O [1-18]
IC50: 100 to 500 nM

N#Cc1ccc(N[C@H]2CC[C@@H](NC(=O)c3c[nH]c4ccccc34)CC2)cc1C(F)(F)F [1-19]
IC50: < 100 nM

N#Cc1ccc(N[C@H]2CC[C@@H](NC(=O)c3ccc4nccn4c3)CC2)cc1C(F)(F)F [1-20]
IC50: 100 to 500 nM

CN(C)c1ccc(C(=O)N[C@H]2CC[C@@H](Nc3ccc(C#N)c(C(F)(F)F)c3)CC2)cc1 [1-21]
IC50 [1]: < 100 nM

N#Cc1ccc(N[C@H]2CC[C@@H](NC(=O)c3ccc(F)cc3)CC2)cc1C(F)(F)F [1-22]
IC50 [1]: 100 to 500 nM

COc1cccc(C(=O)N[C@H]2CC[C@@H](Nc3ccc(C#N)c(C(F)(F)F)c3)CC2)c1 [1-23]
IC50 [1]: 100 to 500 nM

N#Cc1ccc(N[C@H]2CC[C@@H](NC(=O)c3cccc4ncsc34)CC2)cc1C(F)(F)F [1-24]
IC50 [1]: 1000 to 2500 nM

N#Cc1ccc(N[C@H]2CC[C@@H](NC(=O)c3ccc(N4CCOCC4)cc3)CC2)cc1C(F)(F)F [1-25]
IC50 [1]: 100 to 500 nM

CN(C)c1ccc(C(=O)N[C@H]2CC[C@@H](Nc3cc(N(C)C)nc(C(F)(F)F)c3)CC2)cc1 [2-1]
IC50 [1]: 1000 to 2500 nM

COc1ccc(C(=O)N[C@H]2CC[C@@H](Nc3ccc(F)c(C(F)(F)F)c3)CC2)cc1 [2-2]
IC50 [1]: 501 to 1000 nM

Cc1cc(N[C@H]2CC[C@@H](NC(=O)c3ccc4nccn4c3)CC2)cc(C(F)(F)F)c1C#N [2-3]
IC50 [1]: < 100 nM

COc1ccc(C(=O)N[C@H]2CC[C@@H](Nc3cc(C(F)(F)F)nc(N(C)C(C)C)n3)CC2)cc1 [3-1]
IC50 [1]: 1000 to 2500 nM

COc1cccc(C(=O)N[C@H]2CC[C@@H](Nc3cc(C(F)(F)F)nc(C(F)(F)F)c3)CC2)c1 [4-1]
IC50 [1]: 100 to 500 nM

O=C(N[C@H]1CC[C@@H](Nc2cc(C(F)(F)F)nc(C(F)(F)F)c2)CC1)n1cccc1 [4-2]
IC50 [1]: 100 to 500 nM

CNC(=O)Nc1cccc(C(=O)N[C@H]2CC[C@@H](Nc3cc(C(F)(F)F)nc(C(F)(F)F)c3)CC2)c1 [4-3]
IC50 [1]: 100 to 500 nM

CNc1ccc(C(=O)N[C@H]2CC[C@@H](Nc3cc(C(F)(F)F)nc(C(F)(F)F)c3)CC2)cc1 [4-4]
IC50 [1]: 100 to 500 nM

CC(=O)Nc1cccc(C(=O)N[C@H]2CC[C@@H](Nc3cc(C(F)(F)F)nc(C(F)(F)F)c3)CC2)c1 [4-5]
IC50 [1]: 100 to 500 nM

O=C(N[C@H]1CC[C@@H](Nc2cc(C(F)(F)F)nc(C(F)(F)F)c2)CC1)c1cccc2[nH]ccc12 [4-6]
IC50 [1]: 100 to 500 nM

O=C1Nc2c(C(=O)N[C@H]3CC[C@@H](Nc4cc(C(F)(F)F)nc(C(F)(F)F)c4)CC3)cccc2C1=O [4-7]
IC50 [1]: 1000 to 2500 nM

Cc1cc2[nH]cnc2cc1C(=O)N[C@H]1CC[C@@H](Nc2cc(C(F)(F)F)nc(C(F)(F)F)c2)CC1 [4-8]
IC50 [1]: 100 to 500 nM

O=C(N[C@H]1CC[C@@H](Nc2cc(C(F)(F)F)nc(C(F)(F)F)c2)CC1)c1cccc2ncsc12 [4-9]
IC50 [1]: 100 to 500 nM

CS(=O)(=O)Nc1cccc(C(=O)N[C@H]2CC[C@@H](Nc3cc(C(F)(F)F)nc(C(F)(F)F)c3)CC2)c1 [4-10]
IC50 [1]: 100 to 500 nM

CC(C#N)c1cccc(C(=O)N[C@H]2CC[C@@H](Nc3cc(C(F)(F)F)nc(C(F)(F)F)c3)CC2)c1 (some centres unmarked) [4-11]
IC50 [1]: 100 to 500 nM

CCn1nccc1C(=O)N[C@H]1CC[C@@H](Nc2cc(C(F)(F)F)nc(C(F)(F)F)c2)CC1 [4-12]
IC50 [1]: 501 to 1000 nM

N#Cc1ccc(C(=O)N[C@H]2CC[C@@H](Nc3cc(C(F)(F)F)nc(C(F)(F)F)c3)CC2)cc1 [4-13]
IC50 [1]: > 2500 nM

O=C(N[C@H]1CC[C@@H](Nc2cc(C(F)(F)F)nc(C(F)(F)F)c2)CC1)c1ccc(Cl)cc1 [4-14]
IC50 [1]: 501 to 1000 nM

CN1CCCc2ccc(C(=O)N[C@H]3CC[C@@H](Nc4cc(C(F)(F)F)nc(C(F)(F)F)c4)CC3)cc21 [4-15]
IC50 [1]: 1000 to 2500 nM

CC(C)C(=O)Nc1cccc(C(=O)N[C@H]2CC[C@@H](Nc3cc(C(F)(F)F)nc(C(F)(F)F)c3)CC2)c1 [4-16]
IC50 [1]: 501 to 1000 nM

CN(C)c1ccc(C(=O)N[C@H]2CC[C@@H](Nc3cc(C(F)(F)F)nc(N(C)C)n3)CC2)cc1 [4-17]
IC50 [1]: 501 to 1000 nM

CN(C)c1nc(N[C@H]2CC[C@@H](NC(=O)c3cccc(C#N)c3)CC2)cc(C(F)(F)F)n1 [4-18]
IC50 [1]: 1000 to 2500 nM

CN1CCCc2c(C(=O)N[C@H]3CC[C@@H](Nc4cc(C(F)(F)F)nc(C(F)(F)F)c4)CC3)cccc21 [4-19]
IC50 [1]: 1000 to 2500 nM

N=C(N)Nc1ccc(C(=O)N[C@H]2CC[C@@H](Nc3cc(C(F)(F)F)nc(C(F)(F)F)c3)CC2)cc1 [4-20]
IC50 [1]: 501 to 1000 nM

CN1CCCc2cc(C(=O)N[C@H]3CC[C@@H](Nc4cc(C(F)(F)F)nc(C(F)(F)F)c4)CC3)ccc21 [4-21]
IC50 [1]: 501 to 1000 nM

O=C(N[C@H]1CC[C@@H](Nc2cc(C(F)(F)F)nc(C(F)(F)F)c2)CC1)c1c[nH]c2ccccc12 [4-22]
IC50 [1]: 100 to 500 nM

From patent publication US11952346B2, “Modulators of mas-related G-protein receptor X2 and related products and methods” (Escient Pharmaceuticals, Inc., priority 2020, dated 2024)
